The values that follow come from patent US8278452B2, “Heterocyclic compounds and compositions as c-kit and PDGFR kinase inhibitors” (IRM LLC, priority 2008, dated 2012).

The test system of the assay is Mo7e cells which endogenously express c-kit. Description: Mo7e assay: inhibition of SCF dependent proliferation (MTT). It counts as cell-based. Particulars: Table 1; SCF stimulated Mo7e cells, 48 hours, MTT. Here is the method:
The compounds described herein are tested for inhibition of SCF dependent proliferation using Mo7e cells which endogenously express c-kit in a 96 well format. Two-fold serially diluted test compounds (Cmax=10 μM) are evaluated for their antiproliferative activity of Mo7e cells stimulated with human recombinant SCF. After 48 hours of incubation at 37° C., cell viability is measured by using a MTT colorimetric assay from Promega. IC50 values for compounds of the invention are quoted in table 1, supra.
What is called IC50 is the concentration needed to halve the response being measured. Read a high IC50 as weaker potency. Compound `Cc1cc2c(cn1)cc(-c1cc(Nc3cc(-c4ccccc4)on3)ccc1C)c(=O)n2C` [Compound D1, 1,7-dimethyl-3-(2-methyl-5-(5-phenylisoxazol-3-ylamino)phenyl)-1,6-naphthyridin-2(1H)-one] registered an IC50 of 68 nM.
The value for `Cc1cc2c(cn1)cc(-c1cc(Nc3noc(CC(C)C)n3)ccc1C)c(=O)n2C` [Compound A68, 3-(5-(5-isobutyl-1,2,4-oxadiazol-3-ylamino)-2-methylphenyl)-1,7-dimethyl-1,6-naphthyridin-2(1H)-one] was 128 nM; that for `Cc1cc2c(cn1)cc(-c1cc(Nc3cc(-c4ccc(OC(F)(F)F)cc4)on3)ccc1C)c(=O)n2C` [Compound D2] was 428 nM.
`Cc1cc2c(cn1)cc(-c1cc(Nc3noc(CC(C)(C)C)n3)ccc1C)c(=O)n2C` [Compound A19, 3-(5-{[5-(2,2-dimethylpropyl)-1,2,4-oxadiazol-3-yl]amino}-2-methylphenyl)-1,7-dimethyl-1,2-dihydro-1,6-naphthyridin-2-one] had a 50% inhibitory concentration (IC50) of 216 nM.
`CCOCc1nc(Nc2ccc(C)c(-c3cc4cnc(C)cc4n(C)c3=O)c2)no1` [Compound A74, 3-(5-{[5-(ethoxymethyl)-1,2,4-oxadiazol-3-yl]amino}-2-methylphenyl)-1,7-dimethyl-1,2-dihydro-1,6-naphthyridin-2-one] yielded an IC50 of 296 nM.
The value for `Cc1cc2c(cn1)cc(-c1cc(Nc3noc(-c4cccnc4F)n3)ccc1C)c(=O)n2C` [Compound A91, 3-(5-{[5-(2-fluoropyridin-3-yl)-1,2,4-oxadiazol-3-yl]amino}-2-methylphenyl)-1,7-dimethyl-1,2-dihydro-1,6-naphthyridin-2-one] was 244 nM.
Consider `Cc1cc2c(cn1)cc(-c1cc(Nc3noc(-c4c(F)cccc4F)n3)ccc1C)c(=O)n2C` [Compound A60, 3-(5-{[5-(2,6-difluorophenyl)-1,2,4-oxadiazol-3-yl]amino}-2-methylphenyl)-1,7-dimethyl-1,2-dihydro-1,6-naphthyridin-2-one], for which the IC50 was 82 nM. This IC50 is about 3-fold lower than that of the compound before.
As for `Cc1cc2c(cn1)cc(-c1cc(Nc3nnc(-c4ccc(F)cc4)o3)ccc1C)c(=O)n2C` [Compound B6, 3-(5-{[5-(4-fluorophenyl)-1,3,4-oxadiazol-2-yl]amino}-2-methylphenyl)-1,7-dimethyl-1,2-dihydro-1,6-naphthyridin-2-one], the IC50 was 121 nM.
Turning to `CCC(C)c1nc(Nc2ccc(C)c(-c3cc4cnc(C)cc4n(C)c3=O)c2)no1` (stereo in doubt) [Compound A27, 3-[5-({5-[(2S)-butan-2-yl]-1,2,4-oxadiazol-3-yl}amino)-2-methylphenyl]-1,7-dimethyl-1,2-dihydro-1,6-naphthyridin-2-one], the midpoint of inhibition, the IC50, lay at 54 nM.
In the case of `CCc1cc2c(cn1)cc(-c1cc(Nc3noc(C(C)C)n3)ccc1C)c(=O)n2C` [Compound A104, 7-ethyl-3-(5-(5-isopropyl-1,2,4-oxadiazol-3-ylamino)-2-methylphenyl)-1-methyl-1,6-naphthyridin-2(1H)-one], the IC50 came out at 88 nM.
As for `Cc1cc2c(cn1)cc(-c1cc(Nc3noc(-c4ccc(Cl)cc4)n3)ccc1C)c(=O)n2C` [Compound A12, 3-(5-{[5-(4-chlorophenyl)-1,2,4-oxadiazol-3-yl]amino}-2-methylphenyl)-1,7-dimethyl-1,2-dihydro-1,6-naphthyridin-2-one], the IC50 stood at 13 nM.
The compound `Cc1cc2c(cn1)cc(-c1cc(Nc3noc(C4CCOC4)n3)ccc1C)c(=O)n2C` (centres unmarked) [Compound A78, 1,7-dimethyl-3-(2-methyl-5-{[5-(oxolan-3-yl)-1,2,4-oxadiazol-3-yl]amino}phenyl)-1,2-dihydro-1,6-naphthyridin-2-one] came in with an IC50 of 120 nM.
In the case of `Cc1cc2c(cn1)cc(-c1cc(Nc3noc(-c4ccc(C#N)cc4F)n3)ccc1C)c(=O)n2C` [Compound A63, 4-(3-{[3-(1,7-dimethyl-2-oxo-1,2-dihydro-1,6-naphthyridin-3-yl)-4-methylphenyl]amino}-1,2,4-oxadiazol-5-yl)-3-fluorobenzonitrile], half-maximal inhibition (IC50) required 123 nM.
The value for `Cc1cc2c(cn1)cc(-c1cc(Nc3nnc(C4CCC4)[nH]3)ccc1C)c(=O)n2C` [Compound C8, 3-{5-[(5-cyclobutyl-4H-1,2,4-triazol-3-yl)amino]-2-methylphenyl}-1,7-dimethyl-1,2-dihydro-1,6-naphthyridin-2-one] was 435 nM.
The value for `Cc1cc2c(cn1)cc(-c1cc(Nc3noc(-c4cccn4C)n3)ccc1C)c(=O)n2C` [Compound A21, 1,7-dimethyl-3-(2-methyl-5-{[5-(1-methyl-1H-pyrrol-2-yl)-1,2,4-oxadiazol-3-yl]amino}phenyl)-1,2-dihydro-1,6-naphthyridin-2-one] was 129 nM; that for `Cc1cc2c(cn1)cc(-c1cc(Nc3cc(C(C)C)on3)ccc1C)c(=O)n2C` [Compound D14] was 144 nM.
The value for `Cc1cc2c(cn1)cc(-c1cc(Nc3noc(C4CCCCO4)n3)ccc1C)c(=O)n2C` (centres unmarked) [Compound A85, 1,7-dimethyl-3-(2-methyl-5-{[5-(oxan-2-yl)-1,2,4-oxadiazol-3-yl]amino}phenyl)-1,2-dihydro-1,6-naphthyridin-2-one] was 79 nM.
Consider `CO[C@@H](C)c1nc(Nc2ccc(C)c(-c3cc4cnc(C)cc4n(C)c3=O)c2)no1` [Compound A76, (S)-3-(5-(5-(1-methoxyethyl)-1,2,4-oxadiazol-3-ylamino)-2-methylphenyl)-1,7-dimethyl-1,6-naphthyridin-2(1H)-one], for which the midpoint of inhibition, the IC50, lay at 142 nM.
Compound `Cc1cc2c(cn1)cc(-c1cc(Nc3noc(C4(O)CC4)n3)ccc1C)c(=O)n2C` [Compound A57, 3-(5-(5-(1-hydroxycyclopropyl)-1,2,4-oxadiazol-3-ylamino)-2-methylphenyl)-1,7-dimethyl-1,6-naphthyridin-2(1H)-one] had an IC50 of 185 nM.
Turning to `Cc1cc2c(cn1)cc(-c1cc(Nc3noc(C(O)C(C)C)n3)ccc1C)c(=O)n2C` (stereo in doubt) [Compound A92, (R)-3-(5-(5-(1-hydroxy-2-methylpropyl)-1,2,4-oxadiazol-3-ylamino)-2-methylphenyl)-1,7-dimethyl-1,6-naphthyridin-2(1H)-one], the IC50 came out at 104 nM.
For `Cc1cc2c(cn1)cc(-c1cc(Nc3cc(C4CCCO4)on3)ccc1C)c(=O)n2C` (centres unmarked) [Compound D5], 197 nM corresponded to half-maximal inhibition (IC50).
`Cc1cc2c(cn1)cc(-c1cc(Nc3noc(-c4ccc(Cl)cc4Cl)n3)ccc1C)c(=O)n2C` [Compound A82, 3-(5-{[5-(2,4-dichlorophenyl)-1,2,4-oxadiazol-3-yl]amino}-2-methylphenyl)-1,7-dimethyl-1,2-dihydro-1,6-naphthyridin-2-one] yielded an IC50 of 262 nM. The IC50 values of the last two compounds are within 1.5-fold of each other.
Consider `Cc1cc2c(cn1)cc(-c1cc(Nc3cc(C4CC4)on3)ccc1C)c(=O)n2C` [Compound D4, 3-(5-(5-cyclopropylisoxazol-3-ylamino)-2-methylphenyl)-1,7-dimethyl-1,6-naphthyridin-2(1H)-one], for which the IC50 is 56 nM.
Regarding `Cc1cc2c(cn1)cc(-c1cc(Nc3noc(C4Cc5ccccc5O4)n3)ccc1C)c(=O)n2C` (centres unmarked) [Compound A98, 3-(5-{[5-(2,3-dihydro-1-benzofuran-2-yl)-1,2,4-oxadiazol-3-yl]amino}-2-methylphenyl)-1,7-dimethyl-1,2-dihydro-1,6-naphthyridin-2-one], the IC50 came to 389 nM.
In turn, `Cc1cc2c(cn1)cc(-c1cc(Nc3noc(-c4ccc(C#N)cc4)n3)ccc1C)c(=O)n2C` [Compound A37, 4-(3-{[3-(1,7-dimethyl-2-oxo-1,2-dihydro-1,6-naphthyridin-3-yl)-4-methylphenyl]amino}-1,2,4-oxadiazol-5-yl)benzonitrile] showed an IC50 of 57 nM.
The value for `CCCc1nc(Nc2ccc(C)c(-c3cc4cnc(C)cc4n(C)c3=O)c2)no1` [Compound A28, 1,7-dimethyl-3-{2-methyl-5-[(5-propyl-1,2,4-oxadiazol-3-yl)amino]phenyl}-1,2-dihydro-1,6-naphthyridin-2-one] was 50 nM; that for `Cc1cc2c(cn1)cc(-c1cc(Nc3noc(-c4cccc(Cl)c4)n3)ccc1C)c(=O)n2C` [Compound A20, 3-(5-{[5-(3-chlorophenyl)-1,2,4-oxadiazol-3-yl]amino}-2-methylphenyl)-1,7-dimethyl-1,2-dihydro-1,6-naphthyridin-2-one] was 330 nM; that for `CCc1cc2c(cn1)cc(-c1cc(Nc3noc(-c4ccccn4)n3)ccc1C)c(=O)n2C` [Compound A105, 7-ethyl-1-methyl-3-(2-methyl-5-(5-(pyridin-2-yl)-1,2,4-oxadiazol-3-ylamino)phenyl)-1,6-naphthyridin-2(1H)-one] was 285 nM.
For `Cc1cc2c(cn1)cc(-c1cc(Nc3nnc(C4CCCCC4)[nH]3)ccc1C)c(=O)n2C` [Compound C3, 3-{5-[(5-cyclohexyl-4H-1,2,4-triazol-3-yl)amino]-2-methylphenyl}-1,7-dimethyl-1,2-dihydro-1,6-naphthyridin-2-one], the IC50 came to 279 nM.
Compound `Cc1cc2c(cn1)cc(-c1cc(Nc3noc(C4(C(F)(F)F)CC4)n3)ccc1C)c(=O)n2C` [Compound A58, 1,7-dimethyl-3-(2-methyl-5-(5-(1-(trifluoromethyl)cyclopropyl)-1,2,4-oxadiazol-3-ylamino)phenyl)-1,6-naphthyridin-2(1H)-one] returned an IC50 of 399 nM.
The value for `Cc1cc2c(cn1)cc(-c1cc(Nc3noc(-c4ccc(O)cc4)n3)ccc1C)c(=O)n2C` [Compound A36, 3-(5-{[5-(4-hydroxyphenyl)-1,2,4-oxadiazol-3-yl]amino}-2-methylphenyl)-1,7-dimethyl-1,2-dihydro-1,6-naphthyridin-2-one] was 375 nM; that for `Cc1cc2c(cn1)cc(-c1cc(Nc3noc(C(O)C(C)C)n3)ccc1C)c(=O)n2C` (centres unmarked) [Compound A64, 3-(5-(5-(1-hydroxy-2-methylpropyl)-1,2,4-oxadiazol-3-ylamino)-2-methylphenyl)-1,7-dimethyl-1,6-naphthyridin-2(1H)-one] was 118 nM.
